Results: ChEMBL document CHEMBL4414672, “Synthesis of certain benzothieno[3,2-d]pyrimidine derivatives as a selective SIRT2 inhibitors” (Eur J Med Chem, 2020)

Tests used:
Assay type in all cases: functional
[1] = test system: HOP-62; experiment: Growth inhibition of human HOP62 cells at 10^-5 M incubated for 48 hrs by sulforhodamine B assay; conditions: HOP-62, 48 h, read-out: GI
[2] = test system: SF-268; experiment: Growth inhibition of human SF268 cells at 10^-5 M incubated for 48 hrs by sulforhodamine B assay; conditions: SF-268, 48 h, read-out: GI
[3] = test system: SK-MEL-28; experiment: Growth inhibition of human SK-MEL-28 cells at 10^-5 M incubated for 48 hrs by sulforhodamine B assay; conditions: SK-MEL-28, 48 h, read-out: GI
[4] = test system: SW-620; experiment: Growth inhibition of human SW620 cells at 10^-5 M incubated for 48 hrs by sulforhodamine B assay; conditions: SW-620, 48 h, read-out: GI
[5] = test system: PC-3; experiment: Growth inhibition of human PC3 cells at 10^-5 M incubated for 48 hrs by sulforhodamine B assay; conditions: PC-3, 48 h, read-out: GI
[6] = test system: SK-MEL-5; experiment: Growth inhibition of human SK-MEL-5 cells at 10^-5 M incubated for 48 hrs by sulforhodamine B assay; conditions: SK-MEL-5, 48 h, read-out: GI
[7] = test system: NCI-H23; experiment: Growth inhibition of human NCI-H23 cells at 10^-5 M incubated for 48 hrs by sulforhodamine B assay; conditions: NCI-H23, 48 h, read-out: GI
[8] = test system: SF-539; experiment: Growth inhibition of human SF539 cells at 10^-5 M incubated for 48 hrs by sulforhodamine B assay; conditions: SF-539, 48 h, read-out: GI
[9] = test system: OVCAR-8; experiment: Growth inhibition of human OVCAR8 cells at 10^-5 M incubated for 48 hrs by sulforhodamine B assay; conditions: OVCAR-8, 48 h, read-out: GI
[10] = test system: BT-549; experiment: Growth inhibition of human BT549 cells at 10^-5 M incubated for 48 hrs by sulforhodamine B assay; conditions: BT-549, 48 h, read-out: GI
[11] = test system: UO-31; experiment: Growth inhibition of human UO31 cells at 10^-5 M incubated for 48 hrs by sulforhodamine B assay; conditions: UO-31, 48 h, read-out: GI
[12] = test system: UACC-62; experiment: Growth inhibition of human UACC62 cells at 10^-5 M incubated for 48 hrs by sulforhodamine B assay; conditions: UACC-62, 48 h, read-out: GI
[13] = test system: TK-10; experiment: Growth inhibition of human TK10 cells at 10^-5 M incubated for 48 hrs by sulforhodamine B assay; conditions: TK-10, 48 h, read-out: GI
[14] = test system: A498; experiment: Growth inhibition of human A498 cells at 10^-5 M incubated for 48 hrs by sulforhodamine B assay; conditions: A498, 48 h, read-out: GI
[15] = test system: ACHN; experiment: Growth inhibition of human ACHN cells at 10^-5 M incubated for 48 hrs by sulforhodamine B assay; conditions: read-out: GI
[16] = test system: Hs-578T; experiment: Growth inhibition of human Hs 578T cells at 10^-5 M incubated for 48 hrs by sulforhodamine B assay; conditions: read-out: GI
[17] = test system: 786-0; experiment: Growth inhibition of human 786-0 cells at 10^-5 M incubated for 48 hrs by sulforhodamine B assay; conditions: 786-0, 48 h, read-out: GI
[18] = test system: MDA-MB-231; experiment: Growth inhibition of human MDA-MB-231 cells at 10^-5 M incubated for 48 hrs by sulforhodamine B assay; conditions: MDA-MB-231, 48 h, read-out: GI
[19] = test system: SNB-19; experiment: Growth inhibition of human SNB19 cells at 10^-5 M incubated for 48 hrs by sulforhodamine B assay; conditions: SNB-19, 48 h, read-out: GI
[20] = test system: M14; experiment: Growth inhibition of human M14 cells at 10^-5 M incubated for 48 hrs by sulforhodamine B assay; conditions: M14, 48 h, read-out: GI
[21] = test system: NCI-H322M; experiment: Growth inhibition of human NCI-H322M cells at 10^-5 M incubated for 48 hrs by sulforhodamine B assay; conditions: read-out: GI
[22] = test system: RXF 393; experiment: Growth inhibition of human RXF393 cells at 10^-5 M incubated for 48 hrs by sulforhodamine B assay; conditions: RXF 393, 48 h, read-out: GI
[23] = test system: MDA-MB-468; experiment: Growth inhibition of human MDA-MB-468 cells at 10^-5 M incubated for 48 hrs by sulforhodamine B assay; conditions: MDA-MB-468, 48 h, read-out: GI
[24] = test system: NCI-H226; experiment: Growth inhibition of human NCI-H226 cells at 10^-5 M incubated for 48 hrs by sulforhodamine B assay; conditions: NCI-H226, 48 h, read-out: GI
[25] = test system: IGROV-1; experiment: Growth inhibition of human IGROV1 cells at 10^-5 M incubated for 48 hrs by sulforhodamine B assay; conditions: IGROV-1, 48 h, read-out: GI
[26] = test system: K562; experiment: Growth inhibition of human K562 cells at 10^-5 M incubated for 48 hrs by sulforhodamine B assay; conditions: K562, 48 h, read-out: GI
[27] = test system: CAKI-1; experiment: Growth inhibition of human Caki1 cells at 10^-5 M incubated for 48 hrs by sulforhodamine B assay; conditions: CAKI-1, 48 h, read-out: GI
[28] = test system: MOLT-4; experiment: Growth inhibition of human MOLT4 cells at 10^-5 M incubated for 48 hrs by sulforhodamine B assay; conditions: MOLT-4, 48 h, read-out: GI
[29] = test system: NCI-H460; experiment: Growth inhibition of human NCI-H460 cells at 10^-5 M incubated for 48 hrs by sulforhodamine B assay; conditions: NCI-H460, 48 h, read-out: GI
[30] = test system: SF-295; experiment: Growth inhibition of human SF295 cells at 10^-5 M incubated for 48 hrs by sulforhodamine B assay; conditions: SF-295, 48 h, read-out: GI
[31] = test system: HL-60(TB); experiment: Growth inhibition of human HL-60(TB) cells at 10^-5 M incubated for 48 hrs by sulforhodamine B assay; conditions: HL-60, 48 h, read-out: GI
[32] = test system: HCT-15; experiment: Growth inhibition of human HCT15 cells at 10^-5 M incubated for 48 hrs by sulforhodamine B assay; conditions: HCT-15, 48 h, read-out: GI
[33] = test system: SK-OV-3; experiment: Growth inhibition of human SKOV3 cells at 10^-5 M incubated for 48 hrs by sulforhodamine B assay; conditions: SK-OV-3, 48 h, read-out: GI
[34] = test system: SR; experiment: Growth inhibition of human SR cells at 10^-5 M incubated for 48 hrs by sulforhodamine B assay; conditions: read-out: GI
[35] = test system: T47D; experiment: Growth inhibition of human T47D cells at 10^-5 M incubated for 48 hrs by sulforhodamine B assay; conditions: read-out: GI
[36] = test system: SK-MEL-2; experiment: Growth inhibition of human SK-MEL-2 cells at 10^-5 M incubated for 48 hrs by sulforhodamine B assay; conditions: SK-MEL-2, 48 h, read-out: GI
[37] = test system: Malme-3M; experiment: Growth inhibition of human MALME-3M cells at 10^-5 M incubated for 48 hrs by sulforhodamine B assay; conditions: read-out: GI
[38] = test system: COLO 205; experiment: Growth inhibition of human COLO205 cells at 10^-5 M incubated for 48 hrs by sulforhodamine B assay; conditions: COLO 205, 48 h, read-out: GI

NNC1=Nc2c(sc3ccc(Cl)cc23)C(c2cccc([N+](=O)[O-])c2)N1 (stereo not drawn)
inhibition of growth at 10 µM [1]: 6.98%
inhibition of growth at 10 µM [2]: 1.93%
inhibition of growth at 10 µM [3]: -26.6%
inhibition of growth at 10 µM [4]: -6.43%
inhibition of growth at 10 µM [5]: 15.2%
inhibition of growth at 10 µM [6]: 3.86%
inhibition of growth at 10 µM [7]: 9.49%
inhibition of growth at 10 µM [8]: -1.12%
inhibition of growth at 10 µM [9]: -1.52%
inhibition of growth at 10 µM [10]: -17.8%
inhibition of growth at 10 µM [11]: 42.9%
inhibition of growth at 10 µM [12]: 4.25%
inhibition of growth at 10 µM [13]: -18.2%
inhibition of growth at 10 µM [14]: -27.2%
inhibition of growth at 10 µM [15]: 6.37%
inhibition of growth at 10 µM [16]: -2.75%
inhibition of growth at 10 µM [17]: -3.52%
inhibition of growth at 10 µM [18]: 16.3%
inhibition of growth at 10 µM [19]: -1.03%
inhibition of growth at 10 µM [20]: -4.43%
inhibition of growth at 10 µM [21]: 4.45%
inhibition of growth at 10 µM [22]: -16.8%
inhibition of growth at 10 µM [23]: 7.99%
inhibition of growth at 10 µM [24]: 18.4%
inhibition of growth at 10 µM [25]: 23.8%
inhibition of growth at 10 µM [26]: 13.3%
inhibition of growth at 10 µM [27]: 18.5%
inhibition of growth at 10 µM [28]: 13%
inhibition of growth at 10 µM [29]: 1.16%
inhibition of growth at 10 µM [30]: -3.08%
inhibition of growth at 10 µM [31]: 2.98%
inhibition of growth at 10 µM [32]: -5.02%
inhibition of growth at 10 µM [33]: 5.88%
inhibition of growth at 10 µM [34]: 1.98%
inhibition of growth at 10 µM [35]: 12.8%
inhibition of growth at 10 µM [36]: -8.15%
inhibition of growth at 10 µM [37]: -5%
inhibition of growth at 10 µM [38]: -1.26%
